Experimental data as given in publication PMC3751085, “A simple methodology to assess endolysosomal protease activity involved in antigen processing in human primary cells” (BMC Cell Biology, 2013).
Where two headings read alike, the source gives them in different places.

Key:
[1] = Peptide degradation assay in purified cytosol from PBMC; assay type: in vitro ADME; settings: human, s9, amount equivalent to endolysosomes (same number of cells), 8 nM peptide in degradation buffer (20 mM HEPES, 1 mM MgCl2, 137 mM K acetate, 1 mM ATP), 37°C, % original peptide remaining by RP-HPLC, representative of two replicates
Source text: The percentage of acid phosphatase activity in each fraction was used to determine the number of cells that yielded endolysosomes in each fraction. […] The disappearance of the peptide was monitored by RP-HPLC, where the amount of peptide is proportional to the surface area under its peak.
(§1) Endolysosomes were purified from crude PBMC lysate by differential centrifugation. PBMCs were isolated from human buffy coats using Ficoll centrifugation [29]. Cells resuspended in extraction buffer at a concentration of 5 × 10^8 cells/ml [30] were lysed using glass beads as in a previous study done in our laboratory [31]. The cell lysate was centrifuged at 1000g for 10 min at 4°C. The supernatant was transferred to a new tube and centrifuged at 20,000 g for 20 min at 4°C. The resulting pellet consists of endoplasmic reticulum, mitochondria and endolysosomes. The supernatant corresponds to purified cytosolic fraction. […] 120 μl fractions were collected and further analyzed for endolysosomal enrichment.
In studies involving purified endolysosome, an acid phosphatase assay was performed on the fractions and the amount of acid phosphatase activity was used to calculate the total number of cells from which each fraction was derived. […] Another 50 μl of the degradation buffer was added to each sample and the amount of peptide remaining was analyzed by RP-HPLC.

[2] = human, cells or culture medium
Source text: The percentage of acid phosphatase activity in each fraction was used to determine the number of cells that yielded endolysosomes in each fraction. […] The disappearance of the peptide was monitored by RP-HPLC, where the amount of peptide is proportional to the surface area under its peak. Upon degradation the peak area reduced and additional peaks corresponding to degradation products appeared [15].
(§2) We performed a degradation assay as mentioned in Figure 1 and analyzed the peptide fragments produced by mass spectrometry. We compared the degradation of a longer HIV peptide relevant to antigen processing and peptide-based immunogens with crude lysate and purified endolysosomes at pH 5.5 (late endosomal pH) and 4.0 (lysosomal pH) [26]. […] The products of the degradation after a 60-minute incubation with either crude lysate or purified endolysosomes at pH 4.0 and 5.5 were identified by mass spectrometry. […] We compared by mass spectrometry the identity and corresponding peak sirface intensities of all peptides produced in purified endolysosomes and in crude lysate at pH 4 and 5.5 (Additional file 3: Figure S3A).
as §1
The assay is adapted from previously published studies from our laboratory [31]. […] Another 50 μl of the degradation buffer was added to each sample and the amount of peptide remaining was analyzed by RP-HPLC.

in vitro = settings: human, cells or culture medium, pH 4
Procedure: These degradation assays were performed in the presence of cathepsin inhibitors to identify specific cathepsins that played a role in antigen processing. […] The products of peptide degradation after 0, 10, 30 and 60 minutes of the reaction were analyzed by RP-HPLC and the percentage of remaining original peptide was quantified from the area under peak (Figure 3A). To rule out any effect of acidic pH on the peptides, the peptide was incubated for the same amount of time with the reaction buffer without any crude lysate and the peptide was quantified by RP-HPLC (Figure 3B). As mentioned in Figure 1D, a half-life of the peptide in the presence or absence of cathepsin can be calculated. […] Therefore, on fitting a one-phase exponential decay curve, we calculated the stability rate of the peptide at each pH (Figure 3C). […] The stability rate of the peptide without inhibitor was assigned a value of one and the fold change in the stability rate in the presence of inhibitors was calculated. […] The experiment was repeated using PBMC lysate from three different healthy donors and the average of three results are shown in Figure 3C.
as §2
8 nM of peptide was incubated with 30 μg of crude PBMC lysate in 250 μl of degradation buffer (20 mM HEPES, 1 mM magnesium chloride, 137 mM potassium acetate, 1 mM ATP) that was adjusted to the appropriate pH. In studies involving purified endolysosome, an acid phosphatase assay was performed on the fractions and the amount of acid phosphatase activity was used to calculate the total number of cells from which each fraction was derived. Using this approach, equivalent amount of cytosol and endolysosome that were derived from the same number of cells were used in peptide degradation assays. […] When using inhibitors, the compound was added to the crude lysate before addition of the peptide and incubated at room temperature for 30 minutes. […] Another 50 μl of the degradation buffer was added to each sample and the amount of peptide remaining was analyzed by RP-HPLC. […]

[3] = not given; remark: listed apart in the source

Compound | half-life at 8 nM [1] | half-life [2] | half-life of the peptide in endolysosomes at pH 4.0 (purified endolysosomes, pH 4.0, 37°C, RP-HPLC, data not shown) | half-life (in vitro) | number of peptide fragments identified after degradation in endolysosomes (pH 4) | fragments of the crude lysate degradation similar to those produced in endolysosomes, pH 4.0 ([3]; pH 4) | number of peptide fragments identified after degradation in crude lysate ([3]; pH 4) | fragments of the crude lysate degradation similar to the endolysosomal fraction, pH 5.5 ([3]; pH 5.5)
CC[C@H](C)[C@H](NC(=O)[C@@H](NC(=O)[C@H](CCC(=O)O)NC(=O)[C@@H]1CCCN1C(=O)[C@H](CO)NC(=O)[C@H](Cc1ccccc1)NC(=O)[C@H](C)NC(=O)[C@@H](N)CCCCN)C(C)C)C(=O)N1CCC[C@H]1C(=O)N[C@@H](CCSC)C(=O)N[C@@H](Cc1ccccc1)C(=O)O [B57KF11] | 36 min | 8 min | 8 min | 6 min | – | – | – | –
KVVEEKAFSPEVIPMFAAL [5-KF11-3] | – | – | – | – | 39 peptides | 84.75% | 32 peptides | 76.2%
